The values below come from US9145391B2, “Bipyridylaminopyridines as Syk inhibitors” (Merck Sharp & Dohme Corp., priority 2011, dated 2015).

The test deals with recombinant human GST-Syk (Homo sapiens (Human), UniProt P43405). Description: Homogeneous Time-Resolved Fluorescence (HTRF) assay for the recombinant human Syk enzyme. As to conditions: recombinant human GST-Syk 5 pM, ATP 25 μM, read-out: rhSyk IC50. Format: biochemical. As to the method: Syk inhibition may be determined using the following assay protocol: Homogeneous Time-Resolved Fluorescence (HTRF) Assay for the Recombinant Human Syk Enzyme: A recombinant GST-hSyk fusion protein was used to measure potency of compounds to inhibit human Syk activity. […] To initiate the reaction the biotinylated substrate peptide (250 nM final concentration) that contains the phosphorylation site for Syk was added with magnesium (5 mM final concentration) and ATP (25 μM final concentration). […] Final volume of the quenching solution was 10 μL.

SMILES strings stand for the structures.

For the compound `CCCCCCOC(=O)[C@H]1CC[C@H](C(C)(O)c2ccc(-c3cc(C)cc(Nc4cc(C(F)F)ccn4)n3)cn2)CC1` (single isomer, unassigned) [Example 19-9, hexyl trans-4-[(1R or 1S)-1-(6-{[4-(difluoromethyl)pyridin-2-yl]amino}-4-methyl-2,3′-bipyridin-6′-yl)-1-hydroxyethyl] cyclohexanecarboxylate], the 50% inhibitory concentration (IC50) amounted to 190 nM. Next, `CCCCCCCCOC(=O)[C@H]1CC[C@H](C(C)(O)c2ccc(-c3cc(C)cc(Nc4cc(C(F)F)ccn4)n3)cn2)CC1` (single isomer, unassigned) [Example 19-11, octyl trans-4-[(1R or 1S)-1-(6-{[4-(difluoromethyl)pyridin-2-yl]amino}-4-methyl-2,3′-bipyridin-6′-yl)-1-hydroxyethyl] cyclohexanecarboxylate]: greater than 10000 nM; `Cc1cc(Nc2cc(C(F)F)ccn2)nc(-c2ccc(C(C)(O)[C@H]3CC[C@H](C(=O)OC4CCCCC4)CC3)nc2)c1` (single isomer, unassigned) [Example 19-12, cyclohexyl trans-4-[(1R or 1S)-1-(6-{[4-(difluoromethyl)pyridin-2-yl]amino}-4-methyl-2,3′-bipyridin-6′-yl)-1-hydroxyethyl] cyclohexanecarboxylate]: 47 nM; `Cc1cc(Nc2cc(C(F)F)ccn2)nc(-c2ccc(C(C)(O)[C@H]3CC[C@H](C(=O)OC4CCOCC4)CC3)nc2)c1` (single isomer, unassigned) [Example 19-13, tetrahydro-2H-pyran-4-yl trans-4-[(1R or 1S)-1-(6-{[4-(difluoromethyl)pyridin-2-yl]amino}-4-methyl-2,3′-bipyridin-6′-yl)-1-hydroxyethyl] cyclohexanecarboxylate]: 8.7 nM. In the case of `Cc1cc(Nc2cc(C(F)F)ccn2)nc(-c2ccc(C(C)(O)[C@H]3CC[C@H](C(=O)OCC4CCCCC4)CC3)nc2)c1` (single isomer, unassigned) [Example 19-14, cyclohexylmethyl trans-4-[(1R or 1S)-1-(6-{[4-(difluoromethyl)pyridin-2-yl]amino}-4-methyl-2,3′-bipyridin-6′-yl)-1-hydroxyethyl] cyclohexanecarboxylate] it was 210 nM. For `CCOCCOCCOC(=O)[C@H]1CC[C@H](C(C)(O)c2ccc(-c3cc(C)cc(Nc4cc(C(F)F)ccn4)n3)cn2)CC1` (single isomer, unassigned) [Example 19-16, 2-(2-ethoxyethoxy)ethyl trans-4-[(1R or 1S)-1-(6-{[4-(difluoromethyl)pyridin-2-yl]amino}-4-methyl-2,3′-bipyridin-6′-yl)-1-hydroxyethyl] cyclohexanecarboxylate], the half-inhibitory concentration (IC50) amounted to 12 nM. In the case of `COC(=O)COC(=O)[C@H]1CC[C@H](C(C)(O)c2ccc(-c3cc(C)cc(Nc4cc(C(F)F)ccn4)n3)cn2)CC1` (single isomer, unassigned) [Example 19-17, 2-methoxy-2-oxoethyl trans-4-[(1R or 1S)-1-(6-{[4-(difluoromethyl)pyridin-2-yl]amino}-4-methyl-2,3′-bipyridin-6′-yl)-1-hydroxyethyl] cyclohexanecarboxylate] it was 4.3 nM; in that of `Cc1cc(Nc2cc(C(F)F)ccn2)nc(-c2ccc(C(C)(O)[C@H]3CC[C@H](C(=O)OCCN(C)C)CC3)nc2)c1` (single isomer, unassigned) [Example 19-20, 2-(dimethylamino)ethyl trans-4-[(1R or 1S)-1-(6-{[4-difluoromethyl)pyridin-2-yl]amino}-4-methyl-2,3′-bipyridin-6′-yl)-1-hydroxyethyl] cyclohexanecarboxylate], 2.3 nM.

`Cc1cc(Nc2cc(C(F)F)ccn2)nc(-c2ccc(C(C)(O)[C@H]3CC[C@H](C(=O)OCc4oc(=O)oc4C)CC3)nc2)c1` (single isomer, unassigned) [Example 19-21, (5-methyl-2-oxo-1,3-dioxol-4-yl)methyl trans-4-[(1R or 1S)-1-(6-{[4-(difluoromethyl)pyridin-2-yl]amino}-4-methyl-2,3′-bipyridin-6′-yl)-1-hydroxyethyl] cyclohexanecarboxylate]: the IC50 was found to be 5.2 nM.
